Assay results as given in US11472862B2, “IL13Rα2 peptide and its uses” (priority 2017, dated 2022).
Non-standard residues stand in square brackets, D forms with d. No end group written: not given here.

Experiments:
[1] = tested on: U251 glioblastoma xenografts; experiment: Glioblastoma xenograft tumour growth; format: in vivo, mice; settings: 3 μg/100 μL PBS subcutaneously, 7 doses during 15 days, start at 100 mm^3; p<0.01 vs control
Description: (§1) FIG. 6. D1 and D-D1 peptides increase the survival of mice inoculated with metastatic tumor cells and inhibits glioblastoma xenografts. (A) Liver homing experiment. Metastatic KM12SM cells were treated with the IL13 and/or D1 peptide and inoculated in spleen of nude mice. […] (C) 10^7 U251 cells were inoculated subcutaneously into the flanks of mice. Eleven days after cell inoculation, when tumours reached a size of 100 mm^3, mice were treated with D-D1 peptide (3 μg/100 μL of PBS) subcutaneously or with saline solution in a total of 7 doses during 15 days. Tumours were measured every 2-3 days. **p<0.01 vs control.
Additionally, the capacity of the D-D1 peptide to inhibit tumour growth in U251 glioblastoma xenografts was tested. For glioblastoma xenografts, 10^7 U251 cells were inoculated subcutaneously into the flanks of mice. Eleven days after cell inoculation, when tumours reached a size of 100 mm^3, mice were treated with D-D1 peptide (3 μg/100 μL of PBS) subcutaneously or with saline solution in a total of 7 doses during 15 days. Tumours were measured every 2-3 days.

[2] = tested on: KM12SM cells; experiment: Cell invasion assay through Matrigel; format: cell-based, human; settings: with IL-13, peptide 1 μg/ml, 48 h
Description: (§2) Recombinant human IL13 was used at […] (13) and was purchased from PeproTech. IL13Rα2-derived peptides (IL13Rα2D1: GSETWKTIITKN, SEQ ID NO: 3; IL13Rα2D1S: WKTIITKN, SEQ ID NO: 1; IL13Rα2Nter: FEIVDPGY, SEQ ID NO: 14; IL13Rα2Cter WSIPLGPI, SEQ ID NO: 15; IL13Rα2D1S-1A: WATIITKN, SEQ ID NO: 16; IL13Rα2D1S-2A WKAIITKN, SEQ ID NO: 17; IL13Rα2D1S-3A WKTAITKN, SEQ ID NO: 18; IL13Rα2D1S-4A WKTIATKN, SEQ ID NO: 19; IL13Rα2D1S-5A WKTIIAKN, SEQ ID NO: 20; IL13Rα2D1S-6A WKTIITAN, SEQ ID NO: 21) were synthesized using solid phase chemistry with a Focus XC instrument (AAPPtec). The enantio version D-IL13Rα2D1 (D-D1) peptide (GSETWKTIITKN, SEQ ID NO: 3) composed entirely by D-amino acids was purchased from Proteogenix (Schiltigheim, France). […]
(§3) Binding of D1 peptide to IL-13 was monitored by surface plasmon resonance on a BIAcore 3000 instrument (BIAcore Inc, Switzerland). […] The interaction between D1 peptide and the immobilized IL13 was determined by changes in the RU at different D1 concentrations. […] Cell proliferation was determined by absorbance at 560 nm and comparison with control cells collected ab initium. […] Bound cells were lysed with 1% SDS in PBS, and the extent of the adhesion was quantified using a fluorescence analyzer (POLARstar Galaxy, BMG Labtechnologies). […] Effective migration speed was calculated from the distance covered by cells in 24 h in each side of the wound. […]

[3] = tested on: KM12SM cells; experiment: Metastasis experiment in nude mice, Kaplan-Meier survival after intrasplenic inoculation; format: in vivo, Swiss nude mice
Description: as §1
Binding of D1 peptide to IL-13 was monitored by surface plasmon resonance on a BIAcore 3000 instrument (BIAcore Inc, Switzerland). IL-13 was covalently amino coupled to a CM-5 sensor chip. An immobilization level of 7700 RU was obtained. A nonderivatized flow cell was used as a control. The interaction between D1 peptide and the immobilized IL13 was determined by changes in the RU at different D1 concentrations. Cell Signaling Analysis Cancer cells were incubated 3 h in DMEM without serum, detached with 2 mM EDTA, washed and treated with IL-13 (PeproTech) (10 ng/ml) for different times in presence or absence of IL13Rα2D1 peptide. Then, cells were lysed with lysis buffer (1% Igepal, 50 mM Tris-HCl, 100 mM NaCl, 2 mM MgCl2, 10% glycerol, protease inhibitors (Complete Mini, Roche) and phosphatase inhibitor cocktails 2 and 3 (Sigma-Aldrich)). Protein extracts (60 μg) were separated in SDS-PAGE and transferred to nitrocellulose membranes, which were incubated with primary antibodies, washed and incubated with HRP-conjugated secondary antibodies (Sigma-Aldrich). […] Proliferation Assays Cancer cells were seeded at 1×10^4 cells/well on 96-well plates and were incubated for 48 h at 37° C. in DMEM with 0.5% serum in presence of IL-13 (10 ng/ml) and the indicated peptides, followed by 1 h incubation with Thyazolyl Blue Tretrazolium Bromide (MTT) (0.6 mg/mL) (Sigma-Aldrich). Cell proliferation was determined by absorbance at 560 nm and comparison with control cells collected ab initium. Cell Adhesion Assays Cancer cells were starved for 3 h, labeled with BCECF-AM (Molecular Probes), detached with EDTA/PBS and incubated in DMEM in the presence of IL-13 and the indicated peptides for 10 min at 37° C. Then, 6×10^4 cells in 100 μL were added to 96-well plates previously coated with Matrigel (0.4 μg/mm^2), and the plates were incubated for 25 min at 37° C. Subsequently, non-adhered cells were removed by three washes with DMEM. Bound cells were lysed with 1% SDS in PBS, and the extent of the adhesion was quantified using a fluorescence analyzer (POLARstar Galaxy, BMG Labtechnologies). Wound Healing Assays Cancer cells were cultured to confluence in Matrigel-coated plates (0.4 μg/mm^2), and a 1 mm-wide wound was done across the monolayer, which was incubated in serum-free medium alone or with IL-13 (10 ng/mL), in the presence or absence of the indicated peptides. Pictures were taken immediately and after 24 h culture at 37° C. after the injury. Effective migration speed was calculated from the distance covered by cells in 24 h in each side of the wound. Invasion Assays For Matrigel invasion assays, 6×10^4 cells were loaded onto […] pore-size filters coated with […] of Matrigel (1:3 dilution; BD Biosciences) in Transwell plates (Costar) in presence of the indicated peptides. The lower compartment of the invasion chamber was filled with IL-13 (10 ng/mL). After 48 h, non-invading cells were removed from the upper surface of the filter, and cells that migrated through the filter were fixed with 4% paraformaldehyde (Sigma-Aldrich), stained with crystal violet and counted under a microscope. […] Swiss nude mice (Charles River) (n=5 per condition) were inoculated in the spleen with 1.5×10^6 KM12SM cells in 0.1 mL PBS in presence or absence of the indicated peptides (1 μg/mL). A day after inoculation, mice were subjected to removal of the spleen. […]

[4] = tested on: KM12SM cells; experiment: MTT proliferation assay; format: cell-based, human; settings: with IL-13, peptide 1 μg/ml, 48 h
Description: as §2, §3

[5] = tested on: KM12SM cells; experiment: Cell adhesion assay to Matrigel; format: cell-based, human; settings: with IL-13, peptide 1 μg/ml
Description: as §2, §3

GSETWKTIITKN (G[dS][dE][dT][dW][dK][dT][dI][dI][dT][dK][dN]) [D-D1 peptide]
Tumour growth of U251 xenografts [1]: significant growth arrest accompanied by a regression in the tumour size | Inhibition of IL-13-stimulated cell invasion through Matrigel [2]: inhibit cell adhesion, invasion and proliferation | Mice surviving the experimental endpoint, without further treatment ([3]; KM12SM intrasplenic, cells with peptide 1 μg/ml only, n=5 per condition): one | Metastatic lesions in surviving mice, without further treatment ([3]; KM12SM intrasplenic, cells with peptide only): without lesions | Mice surviving the experimental endpoint, with peptide treatment ([3]; KM12SM intrasplenic, cells with peptide plus 7 i.v. doses of 3 μg, n=5 per condition): two | Metastatic lesions at necropsy in surviving mice, with peptide treatment ([3]; KM12SM intrasplenic, cells with peptide plus i.v. treatment): no metastatic lesions at the necropsy | Mouse survival, cells inoculated with peptide plus intravenous peptide treatment ([3]; KM12SM intrasplenic, peptide 1 μg/ml with the cells, then 7 i.v. doses of 3 μg over 2 weeks, n=5): remarkable increase in survival | Mouse survival, cells inoculated with peptide, without further treatment ([3]; KM12SM intrasplenic, peptide 1 μg/ml with the cells, n=5): significant increase | Change of survival of treated mice ([3]; KM12SM metastasis model, treated mice versus control): more than doubling the survival | Inhibition of IL-13-stimulated cell proliferation (MTT) [4]: inhibit cell adhesion, invasion and proliferation | Inhibition of IL-13-stimulated cell adhesion to Matrigel [5]: inhibit cell adhesion, invasion and proliferation
